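Values below derive from 48-hour exposures of cells grown in 96-well plates, with endpoints linearly interpolated between the two concentrations bracketing the appropriate inhibition level. The concentration for 50% growth inhibition is given as GI50.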 Calls of active or inactive are those of the source. Cut-off read from the data, not from the text of the source: active = GI50 up to about 1.1 µM and inactive = higher.
Key:
Assay in all cases: NCI-60 cell line screen, 48 h
[1] = system: Hs-578T
[2] = system: NCI-H23
[3] = system: RXF 393
[4] = system: OVCAR-5
[5] = system: COLO 205
[6] = system: A549
[7] = system: ACHN
[8] = system: UO-31
[9] = system: OVCAR-8
[10] = system: NCI-H226
[11] = system: UACC-257
[12] = system: SF-539
[13] = system: TK-10
[14] = system: MDA-N
[15] = system: MDA-MB-231
[16] = system: Malme-3M
[17] = system: HL-60
[18] = system: SF-295
[19] = system: 786-0
[20] = system: BT-549

Measured: GI50

CSc1ccc(/C=C/c2ccnc3ccccc23)cc1
inactive: [1] 20.9 µM | [2] 11.8 µM | [3] 18.5 µM | [4] 17.7 µM | [5] 11.3 µM | [6] 12.5 µM | [7] 14.1 µM | [8] 11.8 µM | [9] 15.5 µM | [10] 14.5 µM | [11] 18.4 µM | [12] 17.6 µM | [13] 13.9 µM | [14] 13.7 µM | [15] 17 µM | [16] 17.6 µM | [17] 3.97 µM | [18] 14.4 µM | [19] 14.8 µM

O=c1ccn(-c2ccccn2)c(=O)n1-c1ccccn1
inactive: [1] > 100 µM | [2] > 100 µM | [3] > 100 µM | [4] > 100 µM | [5] > 100 µM | [6] > 100 µM | [7] > 100 µM | [8] > 100 µM | [9] > 100 µM | [10] > 100 µM | [11] > 100 µM | [12] > 100 µM | [13] > 100 µM | [14] > 100 µM | [15] > 100 µM | [16] > 100 µM | [17] > 100 µM | [18] > 100 µM | [19] > 100 µM

CC(=O)Nc1ccc(-c2nnc(SCC(=O)Nc3ccc(Cl)cc3Cl)o2)cc1
inactive: [2] 26.2 µM | [3] 33.7 µM | [4] > 100 µM | [5] 28.6 µM | [6] > 100 µM | [7] 44.6 µM | [8] 94.8 µM | [9] 38.2 µM | [10] 29.2 µM | [11] 44.2 µM | [12] 33 µM | [13] 96.8 µM | [16] 20.7 µM | [17] 27.8 µM | [18] 57.8 µM | [19] 16.1 µM

O=C(O)CCc1ccc2c(c1)C(=O)CC2
inactive: [20] > 100 µM | [2] > 100 µM | [3] > 100 µM | [4] > 100 µM | [5] > 100 µM | [6] > 100 µM | [7] > 100 µM | [8] > 100 µM | [9] > 100 µM | [10] > 100 µM | [11] > 100 µM | [12] > 100 µM | [13] > 100 µM | [14] > 100 µM | [15] 80.5 µM | [16] > 100 µM | [17] > 100 µM | [18] > 100 µM | [19] > 100 µM

O=C1OC2(CCCCC2)C(Oc2ccc(Cl)cc2)=C1F
inactive: [1] 50 µM | [3] 61.9 µM | [4] 74 µM | [5] 26.5 µM | [6] 42.1 µM | [7] 45.4 µM | [8] 49.5 µM | [9] 51.9 µM | [11] 24.3 µM | [12] > 100 µM | [13] 85.1 µM | [14] 37.2 µM | [15] 77.3 µM | [16] 15.6 µM | [17] 23.7 µM | [18] 45.4 µM | [19] 48.3 µM

CCCCOP1(=O)C=C(C)C(=C(Cl)Cl)C(C)=C1 (stereo not drawn)
inactive: [2] 12.4 µM | [3] 8.51 µM | [4] 45.1 µM | [5] 5.25 µM | [6] 6.58 µM | [7] 6.43 µM | [8] 19.5 µM | [9] 17.9 µM | [10] 3.38 µM | [11] 5.43 µM | [12] 23.6 µM | [13] 11.2 µM | [16] 14.1 µM | [17] 2.4 µM | [18] 6.61 µM | [19] 12.5 µM

COC(=O)CCC(=O)NC1c2cccc3cccc(c23)Cn2c(=O)n(C)c(=O)n21 (stereo not drawn)
inactive: [1] > 100 µM | [20] > 100 µM | [2] > 100 µM | [3] > 100 µM | [4] > 100 µM | [5] > 100 µM | [6] > 100 µM | [7] > 100 µM | [8] > 100 µM | [9] > 100 µM | [11] > 100 µM | [12] > 100 µM | [13] > 100 µM | [15] > 100 µM | [16] > 100 µM | [18] > 100 µM | [19] > 100 µM

O=C1NCCS(=O)(=O)N[C@@H](CC2=CC=CCC2)C(=O)N2CCCC12 (stereo partly drawn)
inactive: [2] > 100 µM | [3] > 100 µM | [4] > 100 µM | [5] > 100 µM | [6] > 100 µM | [7] > 100 µM | [8] > 100 µM | [9] > 100 µM | [10] > 100 µM | [11] > 100 µM | [12] > 100 µM | [13] > 100 µM | [16] > 100 µM | [17] > 100 µM | [18] > 100 µM | [19] > 100 µM

Cc1nc(C(N)=S)sc1C(=O)/C=C/c1cccc(O)c1
inactive: [2] > 100 µM | [3] > 100 µM | [4] > 100 µM | [5] > 100 µM | [6] > 100 µM | [7] 56.6 µM | [8] > 100 µM | [9] > 100 µM | [10] > 100 µM | [11] > 100 µM | [12] > 100 µM | [13] > 100 µM | [16] > 100 µM | [17] 36.1 µM | [18] > 100 µM | [19] > 100 µM

c1csc(-c2ccc(-c3cccc4nsnc34)s2)c1
inactive: [20] > 100 µM | [2] > 100 µM | [3] 94.4 µM | [4] 71.1 µM | [5] > 100 µM | [6] 62.1 µM | [7] > 100 µM | [8] > 100 µM | [9] > 100 µM | [10] > 100 µM | [11] > 100 µM | [12] > 100 µM | [13] 70.5 µM | [14] 40.4 µM | [15] > 100 µM | [16] > 100 µM | [18] 44.8 µM | [19] 39.5 µM

CCOC(=O)NC(C(C(=O)OCC)C(=O)OCC)(C(F)(F)F)C(F)(F)F
inactive: [1] > 100 µM | [2] > 100 µM | [3] > 100 µM | [4] > 100 µM | [5] > 100 µM | [6] > 100 µM | [7] > 100 µM | [8] > 100 µM | [9] > 100 µM | [10] > 100 µM | [11] > 100 µM | [12] > 100 µM | [13] > 100 µM | [14] > 100 µM | [15] > 100 µM | [16] > 100 µM | [17] > 100 µM | [18] > 100 µM | [19] > 100 µM

CCNCC(=O)Nc1ccc2c(c1)C(=O)c1ccc(NC(=O)CNCC)cc1C2=O
inactive: [1] 4.02 µM | [2] 3.43 µM | [3] 2.53 µM | [4] 3.01 µM | [5] 1.71 µM | [6] 2.41 µM | [7] 1.92 µM | [8] 3.21 µM | [9] 2.18 µM | [10] 5.51 µM | [11] 5.98 µM | [12] 4.97 µM | [13] 5.22 µM | [14] 4.59 µM | [15] 3.3 µM | [16] 15.5 µM | [17] 3.01 µM | [18] 3.33 µM | [19] 2.14 µM

OC12CC/C(=N/OCc3ccccc3)CC1c1ccccc12 (stereo not drawn)
inactive: [2] > 100 µM | [3] > 100 µM | [4] > 100 µM | [5] > 100 µM | [6] > 100 µM | [7] > 100 µM | [8] > 100 µM | [9] > 100 µM | [10] > 100 µM | [11] > 100 µM | [12] > 100 µM | [13] > 100 µM | [16] > 100 µM | [17] > 100 µM | [18] > 100 µM | [19] > 100 µM

COC(=O)CCc1ccc2c(c1)CC1(Cc3ccccc3C1)C2
inactive: [1] > 100 µM | [2] > 100 µM | [3] > 100 µM | [4] > 100 µM | [5] > 100 µM | [6] 98.4 µM | [7] > 100 µM | [8] > 100 µM | [9] > 100 µM | [10] > 100 µM | [11] > 100 µM | [12] > 100 µM | [13] > 100 µM | [14] > 100 µM | [15] > 100 µM | [16] > 100 µM | [17] 51.9 µM | [18] > 100 µM | [19] > 100 µM

CC#CC1C(OC(=O)c2ccccc2)CCCC1(CI)N=[N+]=[N-] (stereo not drawn)
inactive: [2] 28.3 µM | [3] 52 µM | [4] > 100 µM | [5] > 100 µM | [6] 58.6 µM | [7] > 100 µM | [8] 56.5 µM | [9] 59.7 µM | [10] 84.3 µM | [11] 38.2 µM | [12] > 100 µM | [13] > 100 µM | [16] > 100 µM | [17] 15.1 µM | [18] 87.5 µM | [19] > 100 µM

CC1(C)COC2(OC1)C1=NS(=O)(=O)CC13CCC2C3(C)C (stereo not drawn)
inactive: [2] > 100 µM | [3] > 100 µM | [4] > 100 µM | [5] > 100 µM | [6] > 100 µM | [7] > 100 µM | [8] > 100 µM | [9] > 100 µM | [10] > 100 µM | [11] > 100 µM | [12] > 100 µM | [13] > 100 µM | [16] > 100 µM | [17] > 100 µM | [18] > 100 µM | [19] > 100 µM

From ChEMBL document CHEMBL1201862, “PubChem BioAssay data set” (2004)
